“And” between values parts separate entries of the source, which are not always exact repeats. Equal entries are not always repeated.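 Assay format: 96-well plates, 48-hour exposure. GI50 marks 50% less growth. Definition used: TGI = concentration required for complete inhibition of growth.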

One test relates to UO-31 renal. The test can be described thus: NCI anticancer screen, dose series, 48 h.
Compound `CC(SC(=S)N1CCOCC1)C(=O)Nc1nnc(-c2ccc(Cl)cc2)o1` (stereo not drawn) showed a TGI of over 100 µM.

The compound `O=C(CCc1cc(O)cc(O)c1)NCCc1cc(O)cc(OCc2ccccc2)c1` returned a TGI of over 100 µM.

In turn, `COC(=O)/C=C/c1ccc(OP(=O)(O)O)c(OC)c1` came in with a TGI of over 100 µM.

Consider `COc1cc2nc(Cl)nc(NS(=O)(=O)c3cc4ccccc4s3)c2cc1OC`, for which the TGI was determined as 33.3 µM.

Compound `O=c1c(-c2ccccc2)nnc2n(Cc3ccccc3)c3ccccc3n12` yielded a TGI of over 100 µM.

Consider `COC(=O)c1c(C)cccc1/C=C1\Cc2ccc(C)c(C)c2C1=O`, for which the TGI was over 100 µM.

As for `COc1cc([C@@H]2c3cc4c(cc3[C@@H](Nc3ccc(NC(=O)c5cc([N+](=O)[O-])cn5C)cc3)[C@H]3COC(=O)[C@H]23)OCO4)cc(OC)c1O`, the TGI is 0.841 µM and 0.825 µM.

In the case of `COc1ccc(/C(Nc2ccccc2)=C(\CCl)c2ccccc2)cc1OC`, the TGI was over 100 µM.

The test system of another test is HL-60(TB) leukemia. The test can be described thus: NCI anticancer screen, dose series, 48 h.
In turn, `O=[N+]([O-])c1ccc(/C=N/Nc2nc3ccccc3[nH]2)o1` registered a TGI of 11.4 µM.

In turn, `C[C@H]1CC[C@@]2(OC1)O[C@H]1C[C@H]3[C@@H]4CC[C@@H]5C[C@@H](OC6OC(CO)C(O)C(O)C6OC6OC(CO)C(O)C(O)C6O)CC[C@]5(C)[C@H]4CC[C@]3(C)[C@H]1[C@@H]2C` (stereo partly drawn) registered a TGI of 3.25 µM.

With `COc1ccc(CCCCNCc2cccc(CNCCCCc3ccc(OC)cc3)c2)cc1`, the TGI was found to be 3.98 µM.

As to `O=c1c(-c2ccccc2)nnc2n(Cc3ccccc3)c3ccccc3n12`, the TGI was over 100 µM.

The compound `COC(=O)c1c(C)cccc1/C=C1\Cc2ccc(C)c(C)c2C1=O` showed a TGI of over 100 µM.

For the compound `COc1cc([C@@H]2c3cc4c(cc3[C@@H](Nc3ccc(NC(=O)c5cc([N+](=O)[O-])cn5C)cc3)[C@H]3COC(=O)[C@H]23)OCO4)cc(OC)c1O`, the TGI is 0.201 µM and 0.0837 µM.

In turn, `COc1ccc(/C(Nc2ccccc2)=C(\CCl)c2ccccc2)cc1OC` gave a TGI of 50 µM.

The subject of the next test is SR leukemia. The test can be described thus: NCI anticancer screen, dose series, 48 h.
`COC1(OC)CCc2c(sc3ncnc(Nc4cccc(Br)c4)c23)C1` gave a TGI of over 100 µM.

For the compound `CCOC(=O)c1cn(CC)c(=O)n2c1nc1ccccc12`, the TGI is over 100 µM.

The compound `O=[N+]([O-])c1ccc(/C=N/Nc2nc3ccccc3[nH]2)o1` yielded a TGI of 23.6 µM.

Consider `COc1ccc(-c2oc3cc(-c4cc5oc(-c6ccc(OC)cc6)c(-c6ccc(OC)cc6)c5cc4OC)c(OC)cc3c2-c2ccc(OC)cc2)cc1`, for which the TGI was over 100 µM.

With `C[C@H]1CC[C@@]2(OC1)O[C@H]1C[C@H]3[C@@H]4CC[C@@H]5C[C@@H](OC6OC(CO)C(O)C(O)C6OC6OC(CO)C(O)C(O)C6O)CC[C@]5(C)[C@H]4CC[C@]3(C)[C@H]1[C@@H]2C` (stereo partly drawn), the TGI is 4.3 µM.

On to `O=C(NCCC1CNc2ccccc21)OCc1ccccc1` (stereo not drawn), for which the TGI is over 100 µM.

The compound `CCN1/C(=C/C#C/C(C)=C\c2sc3ccc(Cl)cc3[n+]2CC)Sc2ccc(Cl)cc21` had a TGI of over 100 µM.

`CSC(=O)/C=C1\SS/C(=C\C(=O)SC)S1`: the TGI was over 100 µM.

`CC(N)(CC(O)(C(F)(F)Cl)C(F)(F)Cl)C(=O)O` (stereo not drawn): the TGI is over 10 µM.

`COc1ccc(CCCCNCc2cccc(CNCCCCc3ccc(OC)cc3)c2)cc1`: the TGI was over 100 µM.

In turn, `CC(SC(=S)N1CCOCC1)C(=O)Nc1nnc(-c2ccc(Cl)cc2)o1` (stereo not drawn) yielded a TGI of 40.6 µM.

Regarding `O=C(CCc1cc(O)cc(O)c1)NCCc1cc(O)cc(OCc2ccccc2)c1`, the TGI was found to be 87.3 µM.

The compound `COC(=O)/C=C/c1ccc(OP(=O)(O)O)c(OC)c1` showed a TGI of over 100 µM.

On to `COc1cc2nc(Cl)nc(NS(=O)(=O)c3cc4ccccc4s3)c2cc1OC`, for which the TGI was determined as 60.6 µM.

For the compound `O=c1c(-c2ccccc2)nnc2n(Cc3ccccc3)c3ccccc3n12`, the TGI is over 100 µM.

Turning to `COC(=O)c1c(C)cccc1/C=C1\Cc2ccc(C)c(C)c2C1=O`, the TGI was over 100 µM.

The next test deals with SF-295 CNS. The test can be described thus: NCI anticancer screen, dose series, 48 h.
`COC1(OC)CCc2c(sc3ncnc(Nc4cccc(Br)c4)c23)C1` showed a TGI of over 100 µM.

In the case of `CCOC(=O)c1cn(CC)c(=O)n2c1nc1ccccc12`, the TGI is over 100 µM.

Turning to `O=[N+]([O-])c1ccc(/C=N/Nc2nc3ccccc3[nH]2)o1`, the TGI worked out at 41.7 µM.

Compound `COc1ccc(-c2oc3cc(-c4cc5oc(-c6ccc(OC)cc6)c(-c6ccc(OC)cc6)c5cc4OC)c(OC)cc3c2-c2ccc(OC)cc2)cc1` gave a TGI of over 100 µM.

Consider `C[C@H]1CC[C@@]2(OC1)O[C@H]1C[C@H]3[C@@H]4CC[C@@H]5C[C@@H](OC6OC(CO)C(O)C(O)C6OC6OC(CO)C(O)C(O)C6O)CC[C@]5(C)[C@H]4CC[C@]3(C)[C@H]1[C@@H]2C` (stereo partly drawn), for which the TGI worked out at 3.95 µM.

On to `O=C(NCCC1CNc2ccccc21)OCc1ccccc1` (stereo not drawn), for which the TGI is over 100 µM.

Compound `CCN1/C(=C/C#C/C(C)=C\c2sc3ccc(Cl)cc3[n+]2CC)Sc2ccc(Cl)cc21` registered a TGI of 14.9 µM.

Compound `CSC(=O)/C=C1\SS/C(=C\C(=O)SC)S1` displayed a TGI of 13.7 µM.

`CC(N)(CC(O)(C(F)(F)Cl)C(F)(F)Cl)C(=O)O` (stereo not drawn) showed a TGI of over 10 µM.

`COc1ccc(CCCCNCc2cccc(CNCCCCc3ccc(OC)cc3)c2)cc1` gave a TGI of 3.77 µM.

Consider `O=C(CCc1cc(O)cc(O)c1)NCCc1cc(O)cc(OCc2ccccc2)c1`, for which the TGI is over 100 µM.

Turning to `COC(=O)/C=C/c1ccc(OP(=O)(O)O)c(OC)c1`, the TGI was over 100 µM.

`COc1cc2nc(Cl)nc(NS(=O)(=O)c3cc4ccccc4s3)c2cc1OC`: the TGI was over 100 µM.

For `O=c1c(-c2ccccc2)nnc2n(Cc3ccccc3)c3ccccc3n12`, the TGI is over 100 µM.

In turn, `COC(=O)c1c(C)cccc1/C=C1\Cc2ccc(C)c(C)c2C1=O` yielded a TGI of over 100 µM.

On to `COc1cc([C@@H]2c3cc4c(cc3[C@@H](Nc3ccc(NC(=O)c5cc([N+](=O)[O-])cn5C)cc3)[C@H]3COC(=O)[C@H]23)OCO4)cc(OC)c1O`, for which the GI50 was 0.0513 µM and 0.0793 µM.

Turning to `COc1ccc(/C(Nc2ccccc2)=C(\CCl)c2ccccc2)cc1OC`, the TGI was over 100 µM.
